The values that follow come from paper PMC11234416 (Advanced Science, 2024).

SMILES strings stand for the structures.

In assay [1] the target is T1, GSNOR (M. oryzae) (Pyricularia oryzae, UniProt G4N4N6).
T1 construct: gene MGG_06011
The assay can be described thus: biochemical.

Assay [2] addresses T2, rice GSNOR (Oryza sativa, UniProt Q0DWH1).
T2 construct: gene Os02g0815500
As to the kind of experiment: surface plasmon resonance (OpenSPR). The assay is classed as binding.

T2 sequence (Q0DWH1 whole entry): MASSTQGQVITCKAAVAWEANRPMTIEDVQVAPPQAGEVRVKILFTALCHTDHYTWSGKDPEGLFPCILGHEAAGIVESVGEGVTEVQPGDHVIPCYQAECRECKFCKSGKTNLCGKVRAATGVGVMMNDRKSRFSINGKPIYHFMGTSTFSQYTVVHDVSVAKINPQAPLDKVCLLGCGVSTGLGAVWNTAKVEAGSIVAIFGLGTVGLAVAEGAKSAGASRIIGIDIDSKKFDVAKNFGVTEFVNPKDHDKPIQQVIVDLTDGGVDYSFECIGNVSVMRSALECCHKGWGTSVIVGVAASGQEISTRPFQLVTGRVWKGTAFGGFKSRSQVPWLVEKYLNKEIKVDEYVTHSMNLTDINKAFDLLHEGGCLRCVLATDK
T1 sequence (G4N4N6 1-381): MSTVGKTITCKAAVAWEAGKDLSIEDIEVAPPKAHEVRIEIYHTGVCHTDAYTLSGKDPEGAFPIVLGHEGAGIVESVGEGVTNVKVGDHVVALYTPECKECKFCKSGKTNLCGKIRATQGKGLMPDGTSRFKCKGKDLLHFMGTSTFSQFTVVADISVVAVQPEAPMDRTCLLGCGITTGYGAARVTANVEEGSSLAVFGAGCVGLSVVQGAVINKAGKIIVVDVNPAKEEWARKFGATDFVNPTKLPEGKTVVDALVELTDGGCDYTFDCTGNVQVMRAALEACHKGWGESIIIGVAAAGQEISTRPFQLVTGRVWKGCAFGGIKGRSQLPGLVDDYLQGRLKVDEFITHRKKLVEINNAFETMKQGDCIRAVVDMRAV

As to `Cc1cc(C(N)=O)ccc1-n1c(CCC(=O)O)ccc1-c1ccc(-n2ccnc2)cc1` [N6022], the Kd (in general, the equilibrium constant for the complex coming apart) was 55.8 µM in assay [1] and 288 µM in assay [2].
